The text below walks through data of US6977252B1, “Use of 1,4-benzothiazepine derivatives as drugs for overcoming resistance to anticancer drugs” (Noboru Kaneko, priority 1999, dated 2005).

Assay [1] deals with PC-14 tumor. Briefly: Tumor growth in nude mice implanted with PC-14. It counts as in vivo, nude mice BALB/c nu/nu. The following applies: for Tumor growth rate GR: 11th. As to the method:
(§1) Female nude mice BALB/c nu/nu (6-week-old) were implanted subcutaneously in each back with 2×10^7 of PC-14/CDDP and the parental cell line PC-14 suspended in physiological saline, then the progress of tumor were observed. On the 7th day from the implantation, tumor condition was checked to select and randomize testable individuals not to cause any deviation, and the selected mice were then divided into a control group and a test group. After each tumor volume was determined based on the formula: (tumor short diameter)^2×(tumor long diameter), administration of drug was started on the seventh day.
(§2) The compound 1 was used as a test compound, 1.2 mg of which was dissolved in 0.05 ml of dimethyl sulfoxide, and then combined with 0.95 ml of 5% sorbitol-0.2% citric acid 1 hydrate solution (pH3.3) to make uniform solution.
(§3) Cisplatin was used as an anticancer drug, and was dissolved in distilled water to prepare 1.6 mg/ml solution.
(§4) The administration process is carried out by simultaneous intravenous injections of 0.05 ml of the test compound and 0.05 ml of the anticancer-drug solution once a day on the 7th, 11th, 15th day after the tumor implantation. For the control group, 0.1 ml of physiological saline was administered by intravenous injection, and for the group to be administered only the anticancer drug, 0.05 ml of the anticancer-drug solution and 0.05 ml of physiological saline were administered by intravenous injection. One dose of the test compound was 3 mg/kg, and one dose of the anticancer drug was 4 mg/kg. During the administration of the drug, physical status of the whole body of the mice was observed, and the weight and the long/short lengths of tumor were measured. Tumor growth rate (GR) and effect of inhibiting cancer (lowest T/C) were calculated based on the following formulas, respectively. [formula] [formula]

For assay [2], the system named is PC-14/CDDP cisplatin tolerant cell line. Kind of assay: MTT cell growth inhibition by anticancer drug with or without compound 1, PC-14/CDDP. It counts as cell-based, human. The settings on record: for IC50: PC-14/CDDP, MTT, read-out: 50% cell growth inhibiting concentration (IC50) of anticancer drug. As to the method:
(§5) PC-14 as a human non-small cell lung cancer cell line and PC-14/CDDP as a cisplatin tolerant cell line thereof were used to examine an effect of overcoming each resistance to cisplatin, carboplatin, nedaplatin and taxol. PC-14 and PC-14/CDDP were made into a single cell in BPMI 1640 medium by trypsinization or by using a cell scraper, and prepared a cell suspension of 100 cells per 15 μl. The compound 1 dissolved in dimethyl sulfoxide was added therein to make final concentration of 10 μm, and then the resulting liquid was poured into a 96-perforated plate at 150 μl per well. An anticancer drug was dissolved in sterilized distilled water. The resulting liquid of 150 μl per well was poured into the first row to transfer in turn from the second row to the next rows by 150 μl for each raw so as to form two-fold dilution rows. A group without the cells was prepared as a negative control, and a group without the anticancer drug and the compound I was prepared as a positive control. After culturing at 37° C. under carbon dioxide having a concentration of 5% and saturated vapor for 96 hours, an MTT [3-(4,5-dimethylthiazol-2-yl)-2,5-diphenyltetrazolium bromide] reagent of 20 μl dissolved in D-PBS (−) at a concentration of 5 mg/ml was added to each of the groups, and the resulting liquid was cultured for another 4 hours at 37° C. After the completion of the culture, the entire plate was centrifuged, and the supernatant was removed. Dimethyl sulfoxide of 200 μl was added to dissolve formazan crystal generated by enzyme activities of mitochondria in the cells. Then, absorbed light of 562–630 nm was determined by using a multiplate reader. Given that the average growth rate of the negative control is 0% and the average growth rate of the positive control is 100%, a dose-growth curve was plotted to calculate […] cell growth inhibiting concentration (IC50).

The subject of assay [3] is PC-14 human non-small cell lung cancer cell line. Briefly: MTT cell growth inhibition by anticancer drug with or without compound 1, PC-14. It counts as cell-based. The settings on record: read-out: 50% cell growth inhibiting concentration (IC50) of anticancer drug. As to the method:
as §5

The test system of assay [4] is PC-14/CDDP tumor. Kind of assay: Tumor growth in nude mice implanted with PC-14/CDDP. Type of assay: in vivo, nude mice BALB/c nu/nu. The following applies: for lowest T/C / Tumor growth rate GR: PC-14/CDDP; for Tumor growth rate GR: 11th. As to the method:
as §1, §2, §3, §4

For assay [5], the system named is KCP-4 cell isolated from human nasopharyngeal cancer KB cells. The following applies: KCP-4 cisplatin-resistance cell; cited from earlier work.
In assay [6] the test system is GB-1 human glioblastoma cell and U87-GM cell. The following applies: GB-1 cell and U87-GM cell; cited from earlier work.
Assay [7] deals with B16a cell and B16a-Pt cell line. The following applies: B16a cell and cisplatin-resistant B16a-Pt cell line; cited from earlier work.
Assay [8] relates to K562/ADM adriamycin resistant cell line. Kind of assay: MTT cell growth inhibition by adriamycin with or without compound 1, K562/ADM. It counts as cell-based, human. The settings on record: for IC50: Homo sapiens, K562, K562/ADM, read-out: 50% cell growth inhibiting concentration (IC50) of adriamycin. As to the method: as §5
K562 as a human […] cell line and K562/ADM as an adriamycin resistant cell line thereof were used to examine the effect of overcoming the resistance to adriamycin. […]

Assay [9] concerns K562 human promyelocytic leukemia cell line. Kind of assay: MTT cell growth inhibition by adriamycin with or without compound 1, K562. It counts as cell-based. The procedure:
PC-14 as a human non-small cell lung cancer cell line and PC-14/CDDP as a cisplatin tolerant cell line thereof were used to examine an effect of overcoming each resistance to cisplatin, carboplatin, nedaplatin and taxol. PC-14 and PC-14/CDDP were made into a single cell in BPMI 1640 medium by trypsinization or by using a cell scraper, and prepared a cell suspension of 100 cells per 15 μl. The compound 1 dissolved in dimethyl sulfoxide was added therein to make final concentration of 10 μm, and then the resulting liquid was poured into a 96-perforated plate at 150 μl per well. An anticancer drug was dissolved in sterilized distilled water. The resulting liquid of 150 μl per well was poured into the first row to transfer in turn from the second row to the next rows by 150 μl for each raw so as to form two-fold dilution rows. A group without the cells was prepared as a negative control, and a group without the anticancer drug and the compound I was prepared as a positive control. […] Then, absorbed light of 562–630 nm was determined by using a multiplate reader. […]

The mark [10] stands for this setting: with compound 1 (final concentration 10 μm), 96 hours.
[11] abbreviates: PC-14, with compound 1 (final concentration 10 μm), 96 hours.
Setting [12] is: PC-14, without compound 1, 96 hours.

Like-named read-outs stand apart in the source and are kept apart here.

With `N.N.[Cl][Pt][Cl]` [cisplatin], the “lowest T/C” value in assay [1] (11th day, PC-14, cisplatin 4 mg/kg i.v. with compound 1 3 mg/kg i.v.) is recorded as 9.76%; in assay [1] (11th day, PC-14, cisplatin 4 mg/kg i.v., without compound 1) it was 13.33%; in assay [1] (15th day, PC-14, cisplatin 4 mg/kg i.v. with compound 1 3 mg/kg i.v.), 6.75%; in [1] (15th day, PC-14, cisplatin 4 mg/kg i.v., without compound 1), 10.52%; in assay [4] (11th day, cisplatin 4 mg/kg i.v. with compound 1 3 mg/kg i.v.), 9.81%; in [4] (11th day, cisplatin 4 mg/kg i.v., without compound 1) it was 20.64%. The “lowest T/C” value in assay [4] (15th day, cisplatin 4 mg/kg i.v. with compound 1 3 mg/kg i.v.) was 2.36%; in assay [4] (15th day, cisplatin 4 mg/kg i.v., without compound 1), 8.47%. Further, the “Tumor growth rate GR” value was found to be 874.30% in assay [1] (PC-14, cisplatin 4 mg/kg i.v. on 7th, 15th day, without compound 1); 753.32% in [1] (PC-14, cisplatin 4 mg/kg i.v. with compound 1 3 mg/kg i.v. on 7th, 15th day); 478.43% in assay [4] (cisplatin 4 mg/kg i.v. on 7th, 15th day, without compound 1); 190.52% in assay [4] (cisplatin 4 mg/kg i.v. with compound 1 3 mg/kg i.v. on 7th, 15th day). Further, the IC50 was determined as 2.16 ± 1.12 µM in assay [2] (setting [10]); 18.6 ± 2.83 µM in assay [2] (without compound 1, 96 hours); 1.77 ± 0.89 µM in assay [3] (setting [11]); 2.4 ± 1.05 µM in assay [3] (setting [12]). In [5], the “resistance of KCP-4 cell to cisplatin” value is “about 63 fold”.

As to `N.N.O=C([O-])C1(C(=O)[O-])CCC1.[Pt+2]` [carboplatin], the IC50 stood at 26.1 ± 7.78 µM in assay [2] (setting [10]); 143 ± 39.1 µM in assay [2] (without compound 1, 96 hours); 29.5 ± 11.3 µM in assay [3] (setting [11]); 37.1 ± 10.8 µM in assay [3] (setting [12]).

Regarding `COc1ccc(CCN(C)CCCC(C#N)(c2ccc(OC)c(OC)c2)C(C)C)cc1OC` (centres unmarked) [verapamil], the “drugs that enhance any significant antitumor effect of cisplatin” value in assay [6] is reported as “none”. The “enhancement of antitumor effect of cisplatin” value (“enhancement” below) in [7] is listed as “do not exhibit any significant enhanced antitumor effect”.

Turning to `Clc1ccc(C(c2ccc(Cl)cc2)[n+]2ccn(CC(OCc3ccc(Cl)cc3Cl)c3ccc(Cl)cc3Cl)c2)cc1.[Cl-]` (centres unmarked) [calmidazilium], in assay [7], the “enhancement” value is listed as “do not exhibit any significant enhanced antitumor effect”.

As to `CC(=O)O[C@H]1C(=O)[C@@]2(C)[C@H]([C@H](OC(=O)c3ccccc3)[C@]3(O)C[C@H](OC(=O)[C@H](O)[C@@H](NC(=O)c4ccccc4)c4ccccc4)C(C)=C1C3(C)C)[C@]1(OC(C)=O)CO[C@@H]1C[C@@H]2O` [taxol], the IC50 in assay [2] (Homo sapiens, PC-14, 96 h, with compound 1 (final concentration 10 μm), 96 hours) is 1.73 µM; in assay [2] (Homo sapiens, PC-14, 96 h, without compound 1, 96 hours) it was 5.29 µM; in assay [3] (Homo sapiens, PC-14, 96 h, PC-14, with compound 1 (final concentration 10 μm), 96 hours), 0.000663 µM; in assay [3] (Homo sapiens, PC-14, 96 h, PC-14, without compound 1, 96 hours), 0.00113 µM.

Turning to `COc1ccc2c(c1)CN(C(=O)CCN1CCC(Cc3ccccc3)CC1)CCS2` [compound 1, 4-[3-(4-benzylpiperidine-1-yl)propionyl]-7-methoxy-2,3,4,5-tetrahydro-1,4-benzothiazepine], the “effect on resistance and sensitivity to anticancer drugs” value in [2] (cisplatin resistant lung cancer cell line PC-14/CDDP, compound 1 at 10 μm) was “shows the effect of reducing the resistance to and increasing the sensitivity to cisplatin, carboplatin, nedaplatin and taxol”. In addition, the “effect of inhibiting tumor growth together with cisplatin” value in assay [4] (nude mice with PC-14/CDDP, compound 1 3 mg/kg with cisplatin 4 mg/kg i.v.) is listed as “the effect of inhibiting tumor growth in the cisplatin resistant cancer cell line (PC-14/CDDP) was exhibited”. The “effect on resistance and sensitivity to adriamycin” value in assay [8] (adriamycin resistant cell line K562/ADM) is “shows the effect of reducing the resistance to and increasing the sensitivity to adriamycin”.

On to `COC(=O)C1=C(C#N)NC(C)=C(C(=O)OC(C)C)C1c1cccc([N+](=O)[O-])c1` (centres unmarked) [nilvadipine], for which the “drugs that enhance any significant antitumor effect of cisplatin” value in assay [6] is reported as “none”.

For the compound `COc1cccc2c1C(=O)c1c(O)c3c(c(O)c1C2=O)C[C@@](O)(C(=O)CO)C[C@@H]3O[C@H]1C[C@H](N)[C@H](O)[C@H](C)O1` [adriamycin], the IC50 in assay [9] (K562, K562, with compound 1, n = 1, read-out: 50% cell growth inhibiting concentration (IC50) of adriamycin) amounted to 0.004 µM; in assay [9] (K562, K562, without compound 1, n = 1, read-out: 50% cell growth inhibiting concentration (IC50) of adriamycin), 0.008 µM; in assay [8] (with compound 1, n = 1) it was 0.166 µM; in [8] (without compound 1, n = 1) it was 1.15 µM.

Take `[NH2][Pt]1([NH2])[O]CC(=O)[O]1` [nedaplatin]: the IC50 turned out to be 4.16 ± 1.28 µM in assay [2] (setting [10]); 25.9 ± 8.12 µM in assay [2] (without compound 1, 96 hours); 4.36 ± 1.53 µM in [3] (setting [11]); 7.1 ± 1.53 µM in assay [3] (setting [12]).

As for `CN1CCN(CCCN2c3ccccc3Sc3ccc(C(F)(F)F)cc32)CC1` [trifluoperazine], the “enhancement” value in assay [7] is “do not exhibit any significant enhanced antitumor effect”.

Turning to `COC(=O)C1=C(C)NC(C)=C(C(=O)OC2CCCN(Cc3ccccc3)C2)C1c1cccc([N+](=O)[O-])c1` (centres unmarked) [benidipine], in assay [6], the “drugs that enhance any significant antitumor effect of cisplatin” value is reported as “none”.

On to `COc1ccc([C@@H]2Sc3ccccc3N(CCN(C)C)C(=O)[C@@H]2OC(C)=O)cc1` [diltiazem], for which, in assay [6], the “drugs that enhance any significant antitumor effect of cisplatin” value is reported as “none”. For the same compound, the “enhancement” value in [7] is “do not exhibit any significant enhanced antitumor effect”.
